Tested on: 282377-053-R-J1-PDC complex spheroids, viability
Test: Anticancer human tumor 282377-053-R-J1-PDC patient-derived colon adenocarcinoma cell line growth inhibition [GQUAD]
Conditions: for IC50: curve of first compound; for viability, T/C: stronger effect = lower value
Procedure, shortened: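 Multi-cell-type spheroids of tumor cells with HUVEC and mesenchymal stem cells, treated with drug combinations. Concentrations descend in half-log steps from near clinical Cmax, or from 10 microM where Cmax is unknown; viability read-out.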

[1] = second compound 0.0316 µM, first compound 0.0316 µM
[2] = second compound 0.0316 µM, first compound 0.316 µM
[3] = second compound 0.1 µM, first compound 0.0316 µM
[4] = second compound 0.1 µM, first compound 0.316 µM
[5] = second compound 0.316 µM, first compound 0.0316 µM
[6] = second compound 0.316 µM, first compound 0.316 µM
[7] = second compound 1 µM, first compound 0.0316 µM
[8] = second compound 1 µM, first compound 0.316 µM
[9] = second compound 3.16 µM, first compound 0.0316 µM
[10] = second compound 3.16 µM, first compound 0.316 µM
[11] = second compound 10 µM, first compound 0.0316 µM
[12] = second compound 10 µM, first compound 0.316 µM
[13] = second compound 0.0316 µM, first compound 0.1 µM
[14] = second compound 0.0316 µM, first compound 1 µM
[15] = second compound 0.0316 µM, first compound 3.16 µM
[16] = second compound 0.0316 µM, first compound 10 µM
[17] = second compound 0.1 µM, first compound 0.1 µM
[18] = second compound 0.1 µM, first compound 1 µM
[19] = second compound 0.1 µM, first compound 3.16 µM
[20] = second compound 0.1 µM, first compound 10 µM
[21] = second compound 0.316 µM, first compound 0.1 µM
[22] = second compound 0.316 µM, first compound 1 µM
[23] = second compound 0.316 µM, first compound 3.16 µM
[24] = second compound 0.316 µM, first compound 10 µM
[25] = second compound 1 µM, first compound 0.1 µM
[26] = second compound 1 µM, first compound 1 µM
[27] = second compound 1 µM, first compound 3.16 µM
[28] = second compound 1 µM, first compound 10 µM
[29] = second compound 3.16 µM, first compound 0.1 µM
[30] = second compound 3.16 µM, first compound 1 µM
[31] = second compound 3.16 µM, first compound 3.16 µM
[32] = second compound 3.16 µM, first compound 10 µM
[33] = second compound 10 µM, first compound 0.1 µM
[34] = second compound 10 µM, first compound 1 µM
[35] = second compound 10 µM, first compound 3.16 µM
[36] = second compound 10 µM, first compound 10 µM
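Further: spheroids exposed to compounds for 7 days before readout.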
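Wherever viability, T/C is given: percent of vehicle DMSO control viability with 100% = untreated-like growth.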

CC[C@@]1(O)C(=O)OCc2c1cc1n(c2=O)Cc2cc3c(CN(C)C)c(O)ccc3nc2-1 + CN(C)c1ccc(Nc2c3ccc(NC(=O)CCN4CCCC4)cc3nc3cc(NC(=O)CCN4CCCC4)ccc23)cc1
IC50 (second compound 0.0316 µM): > 316 nM
IC50 (second compound 0.1 µM): > 316 nM
IC50 (second compound 0.316 µM): > 316 nM
IC50 (second compound 1 µM): > 316 nM
IC50 (second compound 3.16 µM): > 316 nM
IC50 (second compound 10 µM): > 316 nM
viability, T/C (second compound 0.0316 µM, first compound 0.000999 µM): 108%
viability, T/C (second compound 0.0316 µM, first compound 0.00316 µM): 102%
viability, T/C (second compound 0.0316 µM, first compound 0.00999 µM): 103%
viability, T/C [1]: 118%
viability, T/C (second compound 0.0316 µM, first compound 0.0999 µM): 104%
viability, T/C [2]: 91%
viability, T/C (second compound 0.1 µM, first compound 0.000999 µM): 92.8%
viability, T/C (second compound 0.1 µM, first compound 0.00316 µM): 103%
viability, T/C (second compound 0.1 µM, first compound 0.00999 µM): 95.2%
viability, T/C [3]: 107%
viability, T/C (second compound 0.1 µM, first compound 0.0999 µM): 115%
viability, T/C [4]: 90.5%
viability, T/C (second compound 0.316 µM, first compound 0.000999 µM): 105%
viability, T/C (second compound 0.316 µM, first compound 0.00316 µM): 113%
viability, T/C (second compound 0.316 µM, first compound 0.00999 µM): 88.5%
viability, T/C [5]: 88.3%
viability, T/C (second compound 0.316 µM, first compound 0.0999 µM): 104%
viability, T/C [6]: 101%
viability, T/C (second compound 1 µM, first compound 0.000999 µM): 99.3%
viability, T/C (second compound 1 µM, first compound 0.00316 µM): 101%
viability, T/C (second compound 1 µM, first compound 0.00999 µM): 93%
viability, T/C [7]: 89.7%
viability, T/C (second compound 1 µM, first compound 0.0999 µM): 108%
viability, T/C [8]: 87%
viability, T/C (second compound 3.16 µM, first compound 0.000999 µM): 90.6%
viability, T/C (second compound 3.16 µM, first compound 0.00316 µM): 87.3%
viability, T/C (second compound 3.16 µM, first compound 0.00999 µM): 97.8%
viability, T/C [9]: 86.2%
viability, T/C (second compound 3.16 µM, first compound 0.0999 µM): 102%
viability, T/C [10]: 82.2%
viability, T/C (second compound 10 µM, first compound 0.000999 µM): 88.5%
viability, T/C (second compound 10 µM, first compound 0.00316 µM): 85.7%
viability, T/C (second compound 10 µM, first compound 0.00999 µM): 94.7%
viability, T/C [11]: 79.7%
viability, T/C (second compound 10 µM, first compound 0.0999 µM): 77.3%
viability, T/C [12]: 97%

COc1cc(C2c3cc4c(cc3C(OC3OC5COC(C)OC5C(O)C3O)C3COC(=O)C23)OCO4)cc(OC)c1O (stereo not drawn) + CN(C)c1ccc(Nc2c3ccc(NC(=O)CCN4CCCC4)cc3nc3cc(NC(=O)CCN4CCCC4)ccc23)cc1
IC50 (second compound 0.0316 µM): > 10000 nM
IC50 (second compound 0.1 µM): > 10000 nM
IC50 (second compound 0.316 µM): > 10000 nM
IC50 (second compound 1 µM): > 10000 nM
IC50 (second compound 3.16 µM): > 10000 nM
IC50 (second compound 10 µM): > 10000 nM
viability, T/C [1]: 94.2%
viability, T/C [13]: 94.2%
viability, T/C [2]: 86.6%
viability, T/C [14]: 117%
viability, T/C [15]: 86.7%
viability, T/C [16]: 68.2%
viability, T/C [3]: 105%
viability, T/C [17]: 85.4%
viability, T/C [4]: 101%
viability, T/C [18]: 86%
viability, T/C [19]: 75%
viability, T/C [20]: 67.6%
viability, T/C [5]: 108%
viability, T/C [21]: 93%
viability, T/C [6]: 99%
viability, T/C [22]: 95.6%
viability, T/C [23]: 97.7%
viability, T/C [24]: 66.4%
viability, T/C [7]: 97.4%
viability, T/C [25]: 67.8%
viability, T/C [8]: 114%
viability, T/C [26]: 105%
viability, T/C [27]: 89.2%
viability, T/C [28]: 60.8%
viability, T/C [9]: 94.7%
viability, T/C [29]: 90%
viability, T/C [10]: 120%
viability, T/C [30]: 106%
viability, T/C [31]: 86%
viability, T/C [32]: 66.8%
viability, T/C [11]: 90.3%
viability, T/C [33]: 90.4%
viability, T/C [12]: 105%
viability, T/C [34]: 105%
viability, T/C [35]: 90.4%
viability, T/C [36]: 64.3%

COc1ncnc(C2CC2)c1-c1ncc2cnn(Cc3ccc(-c4nc(C(F)(F)F)cn4C(C)C)cc3)c2n1 + CN(C)c1ccc(Nc2c3ccc(NC(=O)CCN4CCCC4)cc3nc3cc(NC(=O)CCN4CCCC4)ccc23)cc1
IC50 (second compound 0.0316 µM): > 10000 nM
IC50 (second compound 0.1 µM): > 10000 nM
IC50 (second compound 0.316 µM): > 10000 nM
IC50 (second compound 1 µM): > 10000 nM
IC50 (second compound 3.16 µM): > 10000 nM
IC50 (second compound 10 µM): > 10000 nM
viability, T/C [1]: 108%
viability, T/C [13]: 83.7%
viability, T/C [2]: 95.1%
viability, T/C [14]: 76.5%
viability, T/C [15]: 88.1%
viability, T/C [16]: 66.2%
viability, T/C [3]: 97.1%
viability, T/C [17]: 90.2%
viability, T/C [4]: 102%
viability, T/C [18]: 87.6%
viability, T/C [19]: 81.4%
viability, T/C [20]: 76.7%
viability, T/C [5]: 88.3%
viability, T/C [21]: 95.8%
viability, T/C [6]: 86.6%
viability, T/C [22]: 78.5%
viability, T/C [23]: 87.6%
viability, T/C [24]: 77.8%
viability, T/C [7]: 84.5%
viability, T/C [25]: 83.4%
viability, T/C [8]: 93%
viability, T/C [26]: 75.4%
viability, T/C [27]: 79.6%
viability, T/C [28]: 80.8%
viability, T/C [9]: 92.1%
viability, T/C [29]: 85.8%
viability, T/C [10]: 88.2%
viability, T/C [30]: 86.4%
viability, T/C [31]: 75%
viability, T/C [32]: 77.7%
viability, T/C [11]: 85.4%
viability, T/C [33]: 66.8%
viability, T/C [12]: 74.8%
viability, T/C [34]: 66.3%
viability, T/C [35]: 94.8%
viability, T/C [36]: 82.3%

COc1cccc2c1C(=O)c1c(O)c3c(c(O)c1C2=O)CC(O)(C(=O)CO)CC3OC1CC(N)C(O)C(C)O1 (stereo not drawn) + CN(C)c1ccc(Nc2c3ccc(NC(=O)CCN4CCCC4)cc3nc3cc(NC(=O)CCN4CCCC4)ccc23)cc1
IC50 (second compound 0.0316 µM): 1530 nM
IC50 (second compound 0.1 µM): 1890 nM
IC50 (second compound 0.316 µM): 1950 nM
IC50 (second compound 1 µM): 2260 nM
IC50 (second compound 3.16 µM): 2060 nM
IC50 (second compound 10 µM): 2580 nM
viability, T/C [1]: 114%
viability, T/C [13]: 99%
viability, T/C [2]: 92.8%
viability, T/C [14]: 62.6%
viability, T/C [15]: 27.7%
viability, T/C [16]: 1.26%
viability, T/C [3]: 104%
viability, T/C [17]: 96.2%
viability, T/C [4]: 109%
viability, T/C [18]: 71.6%
viability, T/C [19]: 31.1%
viability, T/C [20]: 1.8%
viability, T/C [5]: 89.4%
viability, T/C [21]: 110%
viability, T/C [6]: 98.6%
viability, T/C [22]: 73.7%
viability, T/C [23]: 32.4%
viability, T/C [24]: 2.16%
viability, T/C [7]: 85%
viability, T/C [25]: 94.2%
viability, T/C [8]: 106%
viability, T/C [26]: 73.8%
viability, T/C [27]: 39.5%
viability, T/C [28]: 1.89%
viability, T/C [9]: 97.8%
viability, T/C [29]: 88.1%
viability, T/C [10]: 96.5%
viability, T/C [30]: 74.2%
viability, T/C [31]: 35.2%
viability, T/C [32]: 2.76%
viability, T/C [11]: 97%
viability, T/C [33]: 100%
viability, T/C [12]: 105%
viability, T/C [34]: 83.6%
viability, T/C [35]: 42.9%
viability, T/C [36]: 4.44%

From PubChem BioAssay AID2060501 (Molecular Pharmacology Branch, DTP, NCI, 2025)
